Assay results from PubChem BioAssay AID330 (DTP/NCI, 2004).
“And” between values parts separate entries of the source, which are not always exact repeats. Identical values can stand only once. Toxic doses and inconclusive results are not listed. Square brackets hold non-standard residues; d marks the D form. Peptide text beside a SMILES is read from it. ξ: configuration not given here. ξY = NC(Cc1ccc(O)cc1)C(=O)O

Test system: P388 leukemia ip, CD2F1 mice, survival T/C
Assay: NCI In Vivo Anticancer Drug Screen. Data for tumor model P388 Leukemia (intraperitoneal) in CD2F1 (CDF1) mice
Details: endpoint: median survival time, higher = longer survival
Outline: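 Mice carrying the transplanted tumor received test compound or vehicle. Survival was recorded in each group, and the value is the treated-group measurement divided by that of the vehicle-treated control group.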

[1] = dose: 12.5 mg/kg/injection, schedule: Q01DX009 (ip), vehicle: saline with Tween-80
[2] = dose: 25.0 mg/kg/injection, schedule: Q01DX009 (ip), vehicle: saline with Tween-80
[3] = dose: 50.0 mg/kg/injection, schedule: Q01DX009 (ip), vehicle: saline with Tween-80
[4] = dose: 100.0 mg/kg/injection, schedule: Q01DX009 (ip), vehicle: saline with Tween-80
[5] = dose: 200.0 mg/kg/injection, schedule: Q01DX009 (ip), vehicle: saline with Tween-80
[6] = dose: 60.0 mg/kg/injection, schedule: Q01DX005 (ip), vehicle: saline with Tween-80
[7] = dose: 120.0 mg/kg/injection, schedule: Q01DX005 (ip), vehicle: saline with Tween-80
[8] = dose: 240.0 mg/kg/injection, schedule: Q01DX005 (ip), vehicle: saline with Tween-80
[9] = dose: 50.0 mg/kg/injection, schedule: Q01DX005 (ip), vehicle: Klucel (hydroxypropylcellulose) (HPC)
[10] = dose: 100.0 mg/kg/injection, schedule: Q01DX005 (ip), vehicle: Klucel (hydroxypropylcellulose) (HPC)
[11] = dose: 200.0 mg/kg/injection, schedule: Q01DX005 (ip), vehicle: Klucel (hydroxypropylcellulose) (HPC)
[12] = dose: 50.0 mg/kg/injection, schedule: Q01DX009 (ip), vehicle: saline
[13] = dose: 100.0 mg/kg/injection, schedule: Q01DX009 (ip), vehicle: saline
[14] = dose: 200.0 mg/kg/injection, schedule: Q01DX009 (ip), vehicle: saline

CCOC(=O)CSc1ccc(C)cc1C(O)(C(F)(F)F)C(F)(F)F
T/C [1]: 98 % of control | T/C [2]: 99 % of control | T/C [3]: 108 % of control | T/C [4]: 99 % of control | T/C [5]: 101 % of control

CCOC(=O)N1C=CC2Oc3c(Cl)c(Cl)c(Cl)c(Cl)c3OC2C=N1 (stereo unspecified)
T/C (dose: 60.0 mg/kg/injection, schedule: Q01DX005 (ip), vehicle: Klucel (hydroxypropylcellulose) (HPC)): 102 % of control | T/C (dose: 120.0 mg/kg/injection, schedule: Q01DX005 (ip), vehicle: Klucel (hydroxypropylcellulose) (HPC)): 101 % of control | T/C (dose: 240.0 mg/kg/injection, schedule: Q01DX005 (ip), vehicle: Klucel (hydroxypropylcellulose) (HPC)): 101 % of control

N#CC[N+]1(Cc2ccccn2)CCCC1
T/C (dose: 60.0 mg/kg/injection, schedule: Q01DX005 (ip), vehicle: saline): 101 % of control | T/C (dose: 120.0 mg/kg/injection, schedule: Q01DX005 (ip), vehicle: saline): 108 % of control

CC1(C)CC(N)=CC(=S)N1
T/C [1]: 92 % of control | T/C [2]: 97 % of control | T/C [3]: 101 % of control

CC(=Nc1c[nH]c(=O)[nH]c1=O)c1cc(C)ccc1O
T/C (dose: 100.0 mg/kg/injection, schedule: Q04DX002 (ip), vehicle: suspension in saline): 105 % of control | T/C (dose: 200.0 mg/kg/injection, schedule: Q04DX002 (ip), vehicle: suspension in saline): 101 % of control | T/C (dose: 400.0 mg/kg/injection, schedule: Q04DX002 (ip), vehicle: suspension in saline): 104 % of control

O=C1OC(=O)C2C3C=CC(C12)C1C2C(=O)OC(=O)C2C31 (stereo unspecified)
T/C (dose: 100.0 mg/kg/injection, schedule: Q04DX003 (ip), vehicle: saline with Tween-80): 103 % of control | T/C (dose: 200.0 mg/kg/injection, schedule: Q04DX003 (ip), vehicle: saline with Tween-80): 99 % of control | T/C (dose: 400.0 mg/kg/injection, schedule: Q04DX003 (ip), vehicle: saline with Tween-80): 96 % of control | T/C (dose: 600.0 mg/kg/injection, schedule: Q04DX003 (ip), vehicle: saline with Tween-80): 96 % of control

Cc1c(N2CCCC2)cc2c(c1-n1cccc1)C(C)(C)CC2(C)C
T/C (dose: 50.0 mg/kg/injection, schedule: Q01DX009 (ip), vehicle: Klucel (hydroxypropylcellulose) (HPC)): 102 % of control | T/C (dose: 100.0 mg/kg/injection, schedule: Q01DX009 (ip), vehicle: Klucel (hydroxypropylcellulose) (HPC)): 96 % of control | T/C (dose: 200.0 mg/kg/injection, schedule: Q01DX009 (ip), vehicle: Klucel (hydroxypropylcellulose) (HPC)): 96 % of control

Cc1c(F)cccc1[N+](=O)[O-]
T/C [3]: 104 % of control | T/C [4]: 114 % of control | T/C [5]: 123 % of control

COc1cc(NS(C)(=O)=O)ccc1Nc1c2ccc([N+](=O)[O-])cc2nc2c(C)c(C)ccc12
T/C (dose: 0.04 mg/kg/injection, schedule: Q01DX009 (ip), vehicle: saline with Tween-80): 120 % of control | T/C (dose: 0.07 mg/kg/injection, schedule: Q01DX009 (ip), vehicle: saline with Tween-80): 120 % of control | T/C (dose: 1.13 mg/kg/injection, schedule: Q01DX009 (ip), vehicle: saline with Tween-80): 157 % of control | T/C (dose: 6.25 mg/kg/injection, schedule: Q01DX009 (ip), vehicle: saline with Tween-80): 254 % of control | T/C (dose: 8.8 mg/kg/injection, schedule: Q04DX003 (ip), vehicle: saline with Tween-80): 218 % of control | T/C [1]: 291 % of control | T/C (dose: 13.2 mg/kg/injection, schedule: Q04DX003 (ip), vehicle: saline with Tween-80): 209 % of control | T/C (dose: 20.0 mg/kg/injection, schedule: Q04DX003 (ip), vehicle: saline with Tween-80): 231 % of control | T/C (dose: 30.0 mg/kg/injection, schedule: Q04DX003 (ip), vehicle: saline with Tween-80): 263 % of control

Cc1cc2c(cc1C)NC1=C(N2)OC(c2c[nH]c3ccc(COc4ccccc4)cc23)C1=O (stereo unspecified)
T/C [6]: 92 % of control | T/C [7]: 90 % of control | T/C [8]: 92 % of control

O=C1C(=O)N(c2ccc([N+](=O)[O-])cc2)C(=O)N1c1ccc([N+](=O)[O-])cc1
T/C [6]: 112 % of control | T/C [7]: 95 % of control | T/C [8]: 95 % of control

CC(C)NCC(N)C(=O)O (stereo unspecified)
T/C (dose: 55.0 mg/kg/injection, schedule: Q01DX001 (ip), vehicle: saline): 102 % of control | T/C (dose: 110.0 mg/kg/injection, schedule: Q01DX001 (ip), vehicle: saline): 102 % of control | T/C (dose: 220.0 mg/kg/injection, schedule: Q01DX001 (ip), vehicle: saline): 99 % of control

CCOC(=O)/C(C#N)=N/Nc1ccc(S(=O)(=O)NC(C)=O)cc1
T/C [9]: 96 % of control | T/C [10]: 92 % of control | T/C [11]: 96 % of control

OCCN(CCO)CC(O)COc1cccc2ccccc12 (stereo unspecified)
T/C (dose: 12.5 mg/kg/injection, schedule: Q01DX009 (ip), vehicle: saline): 98 % of control and 116 % of control | T/C (dose: 25.0 mg/kg/injection, schedule: Q01DX009 (ip), vehicle: saline): 110 % of control and 96 % of control | T/C [12]: 103 % of control and 107 % of control | T/C [13]: 104 % of control and 97 % of control | T/C [14]: 110 % of control and 115 % of control

NCC(=O)NC(Cc1ccc(O)cc1)C(=O)NCC(=O)O (stereo unspecified) (H-Gly-[ξY]-Gly-OH)
T/C [9]: 99 % of control | T/C [10]: 98 % of control | T/C [11]: 98 % of control

Cc1cc2cc(O)c3c(=O)c4c(O)cccc4c(=O)c3c2c(=O)c1=O
T/C (dose: 3.12 mg/kg/injection, schedule: Q01DX005 (ip), vehicle: other): 101 % of control | T/C (dose: 6.25 mg/kg/injection, schedule: Q01DX005 (ip), vehicle: other): 107 % of control | T/C (dose: 12.5 mg/kg/injection, schedule: Q01DX005 (ip), vehicle: other): 100 % of control | T/C (dose: 25.0 mg/kg/injection, schedule: Q01DX005 (ip), vehicle: other): 104 % of control

C=CC1(OC)CC1CO (stereo unspecified)
T/C (dose: 25.0 mg/kg/injection, schedule: Q01DX001 (ip), vehicle: Klucel (hydroxypropylcellulose) (HPC)): 99 % of control | T/C (dose: 50.0 mg/kg/injection, schedule: Q01DX001 (ip), vehicle: Klucel (hydroxypropylcellulose) (HPC)): 102 % of control | T/C (dose: 100.0 mg/kg/injection, schedule: Q01DX001 (ip), vehicle: Klucel (hydroxypropylcellulose) (HPC)): 91 % of control and 93 % of control | T/C (dose: 200.0 mg/kg/injection, schedule: Q01DX001 (ip), vehicle: Klucel (hydroxypropylcellulose) (HPC)): 95 % of control

O=C(O)CCCCC1CCSS1 (stereo unspecified)
T/C (dose: 15.63 mg/kg/injection, schedule: Q01DX005 (ip), vehicle: Klucel (hydroxypropylcellulose) (HPC)): 103 % of control | T/C (dose: 31.25 mg/kg/injection, schedule: Q01DX005 (ip), vehicle: Klucel (hydroxypropylcellulose) (HPC)): 103 % of control | T/C (dose: 62.5 mg/kg/injection, schedule: Q01DX005 (ip), vehicle: Klucel (hydroxypropylcellulose) (HPC)): 94 % of control | T/C (dose: 125.0 mg/kg/injection, schedule: Q01DX005 (ip), vehicle: Klucel (hydroxypropylcellulose) (HPC)): 97 % of control

O=NN(CCCl)C(=O)OCCCSSCCCOC(=O)N(CCCl)N=O
T/C (dose: 50.0 mg/kg/injection, schedule: Q01DX009 (ip), vehicle: water): 120 % of control

C/C1=N/N=C(N)\N=C(\C)CC1
T/C [12]: 90 % of control | T/C [13]: 102 % of control | T/C [14]: 101 % of control

C=C(C[P+](c1ccccc1)(c1ccccc1)c1ccccc1)C(=O)OCC
T/C (dose: 3.12 mg/kg/injection, schedule: Q01DX001 (ip), vehicle: saline): 111 % of control | T/C (dose: 6.25 mg/kg/injection, schedule: Q01DX001 (ip), vehicle: saline): 109 % of control | T/C (dose: 12.5 mg/kg/injection, schedule: Q01DX001 (ip), vehicle: saline): 113 % of control | T/C (dose: 12.5 mg/kg/injection, schedule: Q01DX001 (ip), vehicle: suspension in saline): 117 % of control

CCCCC(NC(=O)C(Cl)Cl)C(=O)O (stereo unspecified)
T/C [9]: 94 % of control | T/C [10]: 98 % of control | T/C [11]: 88 % of control

Nc1nnc2nc(C3(c4nc5nnc(N)n5[nH]c4=O)Cc4ccccc4C3=O)c(=O)[nH]n12
T/C (dose: 50.0 mg/kg/injection, schedule: Q01DX005 (ip), vehicle: saline with Tween-80): 91 % of control | T/C (dose: 100.0 mg/kg/injection, schedule: Q01DX005 (ip), vehicle: saline with Tween-80): 100 % of control | T/C (dose: 200.0 mg/kg/injection, schedule: Q01DX005 (ip), vehicle: saline with Tween-80): 108 % of control
